Values of other authors, collected in patent US20070219250A1, “Pharmaceutical Compositions of Nateglinide” (priority 2003, published 2007).

Solubility in water: insoluble
Structure (SMILES): CC(C)[C@H]1CC[C@H](C(=O)N[C@H](Cc2ccccc2)C(=O)O)CC1 [Nateglinide]
